# From US7615361B2, “Toxicity screening methods” (Ceetox, Inc., priority 2006, dated 2009)
# How the values were obtained:
# [1] = MemTox membrane leakage (AK / α-GST); assay type: cell-based; conditions: rat, NRK cells, read-out: GST TC50
# Procedure: Membrane Leakage (α-Glutathione S-transferase and/or Adenylate Kinase): The presence of Adenylate Kinase (AK) or α-Glutathione S-transferase (α-GST), both enzyme leakage markers, was measured in the culture medium using an activity assay for Adenylate Kinase and/or an ELISA assay for α-GST. At the end of the exposure period, the medium covering the cells in each well was removed and placed into new 96-well plates with appropriate labeling. […] Luminescence (AK) values were measured with a Packard Fusion or equivalent plate reader, and absorbance (α-GST) values were measured with a Packard SpectraCount™ or equivalent reader at 450 nm and reference absorbance at 650 nm.
# Membrane Leakage (α-Glutathione S-transferase and/or Adenylate Kinase): Leakage of Adenylate Kinase or α-GST from the cell into the culture medium was determined by collecting the culture medium at the end of the exposure period. Thus, the values measured represent total enzyme leakage lost over the exposure period. The control for 100% dead or maximum enzyme release was based on cells treated with 1 mM digitonin at the time of dosing. Percent dead cells relative to digitonin treated cells was determined and then subtracted from 100% to yield the percent live cells.
# The third experiment was done to evaluate the specificity and selectivity of the test compound in another non-tumor cell that was derived from normal rat kidney tissue. In this experiment the test compound has no effect on cell number of acute cell death up to the 500 dilution after 6 and 24 hr of exposure (FIG. 76C and 77C). Significant effects were observed on mitochondrial markers at dilutions that dropped pH to 3.7. The bar graph in FIG. 82 summarizes these effects. […] In contrast the rat tumor cell line was sensitive to the test compound and cell death occurred at the 500 dilution and could not be attributed to low pH.
# SK-MEL28 cells = test: Membrane lipid peroxidation (8-isoprostane ELISA)
# Procedure: Lipid Peroxidation Measured as 8-Isoprostane (8-ISO): 8-ISO levels were determined using an ELISA. 8-ISO is a member of a family of eicosanoids produced non-enzymatically by random oxidation of tissue phospholipids by oxygen radicals. Therefore, an increase in 8-ISO is an indirect measure of increased lipid peroxidation (Vacchiano and Tempel, 1994). At the end of the exposure period, plates were either analyzed immediately or stored at −80° C. until needed for analysis. Color development, which is […] to the amount of 8-ISO present in the sample, was read on a Packard Fusion or equivalent plate reader at 415 nm.
# Lipid Peroxidation Measured as 8-Isoprostane (8-ISO): Background absorbance produced from Ellman's reagent is subtracted from all wells. Non-specific binding is subtracted from the maximum binding wells to give a corrected maximum binding expressed as Bo. The percent of bound (B) relative to maximum binding capacity (Bo) for all unknown samples and for standards was determined an expressed as (% B/Bo). The % B/Bo for standards was plotted against the log of 8-ISO added to yield the final standard curve. This curve was used to convert % B/Bo to pg 8-ISO/mL of sample.
# The test compound consisted of two parts mixed in a constant ratio of 5:1. The final test mixture consisted of Test mix 1 and Test mix 2, which were received as frozen solutions. The test mixture was tested in a ratio of 5:1 COMP A in five different cell types which included the following: SK-MEL28, human hepatocytes, HUVEC, C32, and NHEM cells. Cells were seeded into 96-well plates and cultured in medium containing 10% bovine serum. […]
# Experimental Protocol: The test compounds were shipped on dry ice for testing. The compounds were stored frozen at −80° C. until needed. Dosing solutions were prepared in complete culture medium. SK-MEL28, human hepatocytes, HUVEC, C32, and NHEM cells were used as the test systems. Cells were seeded into 96-well plates and allowed to equilibrate for approximately 48 hr. Following the equilibration period the cells were exposed to the test compound mix at concentrations of COMP A (μg/mL)=(250:50), (125:25), (25:12.5), (12.5:2.5), (2.5:1.25), (1.25:0.25), and (0.25:0.05). […] Following the exposure period, the cells or their supernatant (culture medium) were analyzed for changes in cell proliferation, membrane leakage, mitochondrial function, oxidative stress, and apoptosis. The resultant exposure concentration response curves were graphed and analyzed for determining the concentration that produced a half maximal response or TC50.
# P-glycoprotein (PgP) = P-glycoprotein (PgP) (Homo sapiens, UniProt P08183); test: P-glycoprotein (PgP) binding: MTT with and without cyclosporin A, human hepatocytes; assay type: cell-based; set-up: SK-MEL28, human hepatocytes, HUVEC, C32, and NHEM cells were used as the test systems; endogenous in cells; conditions: for % Control (Compound + CSA) / % Control (Compound): human hepatocytes 24 HR, MTT; for % Control (Compound + CSA): with cyclosporin A; for % Control (Compound): without CSA; for % Difference: human hepatocytes, 24 HR
# P-glycoprotein (PgP), sequence (P08183 whole entry): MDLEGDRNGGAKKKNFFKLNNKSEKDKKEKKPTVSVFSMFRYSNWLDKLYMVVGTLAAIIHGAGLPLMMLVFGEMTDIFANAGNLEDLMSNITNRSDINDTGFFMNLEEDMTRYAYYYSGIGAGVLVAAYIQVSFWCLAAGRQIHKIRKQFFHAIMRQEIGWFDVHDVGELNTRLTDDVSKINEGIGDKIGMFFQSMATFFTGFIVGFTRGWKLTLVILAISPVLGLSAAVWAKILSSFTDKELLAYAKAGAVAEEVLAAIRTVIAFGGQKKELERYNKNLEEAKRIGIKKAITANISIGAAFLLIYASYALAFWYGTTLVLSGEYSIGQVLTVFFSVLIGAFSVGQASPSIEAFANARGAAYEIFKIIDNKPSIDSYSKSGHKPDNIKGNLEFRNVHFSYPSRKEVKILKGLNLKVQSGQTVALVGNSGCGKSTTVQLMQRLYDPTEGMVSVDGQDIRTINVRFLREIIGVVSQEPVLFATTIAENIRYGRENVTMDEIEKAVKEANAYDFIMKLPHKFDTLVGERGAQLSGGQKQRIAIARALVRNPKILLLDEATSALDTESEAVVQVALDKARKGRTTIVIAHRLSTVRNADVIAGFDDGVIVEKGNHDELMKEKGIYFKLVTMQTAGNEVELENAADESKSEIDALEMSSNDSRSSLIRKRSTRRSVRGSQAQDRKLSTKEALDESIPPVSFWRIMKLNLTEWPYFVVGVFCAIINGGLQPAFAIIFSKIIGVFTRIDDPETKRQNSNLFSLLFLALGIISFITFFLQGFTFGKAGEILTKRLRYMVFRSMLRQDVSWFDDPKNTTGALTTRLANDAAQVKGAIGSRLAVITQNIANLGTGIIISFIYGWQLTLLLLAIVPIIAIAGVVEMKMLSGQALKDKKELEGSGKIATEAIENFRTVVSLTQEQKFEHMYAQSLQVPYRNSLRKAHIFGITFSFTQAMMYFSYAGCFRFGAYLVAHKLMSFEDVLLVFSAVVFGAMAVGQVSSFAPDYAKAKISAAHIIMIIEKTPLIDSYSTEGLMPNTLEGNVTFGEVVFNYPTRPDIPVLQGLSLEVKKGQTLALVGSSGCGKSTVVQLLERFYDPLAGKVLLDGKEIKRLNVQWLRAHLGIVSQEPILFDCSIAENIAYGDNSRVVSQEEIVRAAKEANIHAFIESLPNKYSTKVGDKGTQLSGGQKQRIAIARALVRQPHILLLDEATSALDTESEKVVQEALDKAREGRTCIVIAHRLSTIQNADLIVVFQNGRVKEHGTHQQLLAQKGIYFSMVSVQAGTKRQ
# Procedure: P-glycoprotein (PgP) transport proteins are expressed in the bile canalicular membrane of normal liver. However, in neoplastic cells it is not uncommon to have expression of this transporter system in the plasma membrane. The H4IIE cells have a very active efflux pump activity in the plasma membrane. As a result, compounds that are substrates for this transporter may not accumulate inside the cell. The existence of these transporters was evaluated with the Calcein-AM assay and with known substrates of PgP. […] Therefore, compounds that show negative toxicity should be evaluated as potential substrates of PgP and compared to data shown in the PgP table of this example.
# The cell supernatant or the cells themselves were harvested for biochemical analysis. General cytotoxicity was evaluated by monitoring membrane integrity, mitochondrial function, cell proliferation, oxidative stress, and apoptosis. In addition to monitoring biochemical changes essential for cell health, interaction with P-glycoprotein (PgP) and solubility were also assessed. The means of each exposure group (n=3-7) were calculated for each assay performed. Intra assay variation well to well was typically less than 10% with plate to plate variation typically less than 20%.
# [2] = SK-MEL28, 24 HR, COMP A (LOW) / controls #2
# [3] = SK-MEL28, 72 HR, COMP A (LOW) / controls #2
Compound,CC50 at 6 h [1],CC50 at 24 h [1],"Membrane Lipid Peroxidation (SK-MEL28 cells; SK-MEL28, 24 HR)",Membrane Lipid Peroxidation (SK-MEL28 cells; [2]),Membrane Lipid Peroxidation (SK-MEL28 cells; [3]),% Control (Compound + CSA) (P-glycoprotein (PgP)),% Control (Compound) (P-glycoprotein (PgP)),% Difference (P-glycoprotein (PgP))
"CC[C@@]1(O)C(=O)OCc2c1cc1n(c2=O)Cc2cc3ccccc3nc2-1 [CAMPTOTHECIN, Camptothecin]",300 µM,100 µM,0,0,1 (1 = Modest increase with maximum values ≦15 pg/mL),65.8%,88.5%,25.7%
"C=C(C)[C@H]1Cc2c(ccc3c2O[C@@H]2COc4cc(OC)c(OC)cc4[C@@H]2C3=O)O1 [ROTENONE, Rotenone]",10 µM,10 µM,3 (3 = Concentration related increase with a maximum value ≧30 pg/mL),2 (2 = Concentration related increase with maximum values ≧15 pg/mL),3 (3 = Concentration related increase with a maximum value ≧30 pg/mL),60.9%,97.1%,37.2%
